Read-outs that look alike come from different tables or passages of the source.
How the values were obtained:
human DGAT2 = target: T1, human DGAT2 (Homo sapiens, UniProt Q96PD7); test: DGAT enzyme inhibition test, hDGAT2 enzyme from sf9 insect cells (DGAT2 selectivity); format: biochemical
T1 construct: made in house; host or cells: sf9 insect cells
T1 sequence (Q96PD7 1-388): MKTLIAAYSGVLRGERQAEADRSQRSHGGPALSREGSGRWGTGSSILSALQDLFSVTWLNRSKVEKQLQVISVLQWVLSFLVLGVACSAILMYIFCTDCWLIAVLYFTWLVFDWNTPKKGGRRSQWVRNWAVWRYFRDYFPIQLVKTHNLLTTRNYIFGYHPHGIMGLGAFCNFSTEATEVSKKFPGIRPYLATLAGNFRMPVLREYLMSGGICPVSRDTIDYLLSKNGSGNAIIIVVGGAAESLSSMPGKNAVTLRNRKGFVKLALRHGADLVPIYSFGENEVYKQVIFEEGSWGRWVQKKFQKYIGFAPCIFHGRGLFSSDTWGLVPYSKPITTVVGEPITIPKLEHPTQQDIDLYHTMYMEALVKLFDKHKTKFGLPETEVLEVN
Text: (§1) To investigate inhibitory effect of the compounds of Examples 1-33 against DGAT enzyme activity, DGAT enzyme inhibition and DGAT2 selectivity were investigated using zymogen including:
(§2) 1) hDGAT1 and hDGAT2 enzymes, derived from insect cell overexpressing human DGAT1 and DGAT2 (‘sf9’), respectively,
(§3) To be specific, for the purpose of measuring human-derived DGAT enzyme inhibitory activity, using the zymogen, including enzymes derived from insect cell overexpressing human DGAT1 and DGAT2 (‘sf9’), microsomal protein isolated from human duodenal adenocarcinoma (‘Hutu 80’), and microsomal protein isolated from rat, and according to Coleman et al., (Methods Enzymol., 98-103, 1992), and substrate including 1,2-diacylglycerol(Sigma, D0138) and [^14C]palmitoyl-CoA (Amersham, CFA583), the amount of radiation of [^14C]triacylglycerol produced after enzymatic reaction was measured.
(§4) To be more specific, to the reaction solution containing 175 mM Tris-HCl (pH 8.0), 20 μl bovine serum albumin (10 mg/ml), 100 mM magnesium chloride, 30 μM [^14C]palmitoyl CoA (0.02 μCi, Amersham) and 200 μM 1,2-dioleoylglycerol, reagent dissolved in dimethylsulfoxide (10.0 μl) was added. After introducing 100 to 200 μg isolated microsomal protein and allowing the same to react at 25° C. for 10 min, the reaction was stopped by adding 1.5 ml stop solution (2-propanol:heptane:water=80:20:2, v:v:v). To isolate the product of the reaction (i.e., [^14C]triacylglycerol), 1 ml heptane and 0.5 ml distilled water were added and then decocted. After taking 1 ml supernatant, 2 ml alkaline ethanol solution (ethanol:0.5 N sodium hydroxide:water=50:10:40, v:v:v) were added and then decocted. After taking 0.65 ml supernatant from the decoction, the amount of radiation was measured with liquid scintillation counter (LSC). The DGAT inhibitory activity was calculated with Mathematical Expression 1 below:
(§5) T denotes cpm of experimental group in which the enzymatic reaction solution was treated with the sample,
(§6) C denotes cpm of control group in which the enzymatic reaction solution was not treated with the sample, and
(§7) B denotes cpm of control group treated with the sample without zymogen.

human DGAT1 = target: T2, human DGAT1 (Homo sapiens, UniProt O75907); test: DGAT enzyme inhibition test, hDGAT1 enzyme from sf9 insect cells; format: biochemical; conditions: enzyme from sf9 cells overexpressing hDGAT1; read-out: hDGAT-1 (sf9) IC50
T2 construct: made in house; host or cells: sf9 insect cells
T2 sequence (O75907 1-488): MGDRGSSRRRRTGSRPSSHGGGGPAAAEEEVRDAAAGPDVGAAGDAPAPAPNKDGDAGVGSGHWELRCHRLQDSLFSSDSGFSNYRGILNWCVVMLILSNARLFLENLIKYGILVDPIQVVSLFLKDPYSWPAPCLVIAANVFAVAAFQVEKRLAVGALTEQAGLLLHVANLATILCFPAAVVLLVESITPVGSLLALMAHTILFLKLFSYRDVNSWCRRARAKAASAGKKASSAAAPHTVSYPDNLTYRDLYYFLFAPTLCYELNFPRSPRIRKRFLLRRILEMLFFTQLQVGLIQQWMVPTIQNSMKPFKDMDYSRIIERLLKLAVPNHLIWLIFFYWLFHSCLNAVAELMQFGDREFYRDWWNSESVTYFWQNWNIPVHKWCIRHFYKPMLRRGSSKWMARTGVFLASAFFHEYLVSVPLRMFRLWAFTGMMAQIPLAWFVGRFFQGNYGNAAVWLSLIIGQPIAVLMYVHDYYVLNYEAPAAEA
Text: as §1, §2, §3, §4, §5, §6, §7

HepG2 cells = test: DGAT inhibitory effect in HepG2 cells (triglyceride production from [14C]glycerol); format: cell-based; conditions: Homo sapiens; for activity at 10 µM: HepG2, 6 h, DMSO control = 100, read-out: Triglyceride production rate (%)/HepG2 cells at 10 μM; for inhibition at 10 µM: HepG2, 10 μM, read-out: biosynthesis inhibition rate of triglyceride
Method: To investigate inhibition effect on intracellular DGAT enzyme activity of the compounds obtained in Examples 1-51, intracellular DGAT enzyme activity was measured using human-derived liver HepG2 cells.
HepG2 cells were purchased from ATCC, and cultured in 37° C., 5% CO2 incubator including minimum essential medium (2 mM L-glutamine, earle's BSS adjusted to contain 1.5 g/L sodium bicarbonate, 0.1 mM nonessential amino acids, and 1 mM sodium pyruvate) added with 10% fetal bovine serum (FBS) and 1% antibiotic (100 U/ml penicillin and 100 µg/ml streptomycin).
The intracellular DGAT enzyme activity was measured based on an amount of triglycerides produced in the cultured HepG2 cells, by adding 10 μM enzyme inhibitor compounds obtained in Examples 1-51, respectively, and then determining the effect of the enzyme inhibitors according to reduction rate of the triglyceride production.
Specifically, cells were seeded 1×10^6 cell/ml per well of the 24 well culture plate, and 24 hours after incubation, medium was exchanged with FBS-free DMEM medium, and sample of 0.2 mCi [^14C]glycerol (Amersham) was added as substrate, and the reaction was allowed to occur for 6 hr. The induced production of triglyceride was catalyzed by the DGAT enzyme, and DGAT enzyme activity was determined based on the amount of production of triglyceride which was measured based on the amount of radiation. The sample was dissolved in dimethylsulfoxide (DMSO) to be used, and the control group in the triglyceride production reaction was reacted with dimethylsulfoxide only (i.e., without sample), and the amount of the triglyceride production rate was set to 100.
After the reaction completed, the substrate [^14C]glycerol which was either not absorbed into cells or not used for the reaction, were removed with phosphate-buffer-saline (PBS), and 0.5 ml extraction solvent (hexane:isopropanol=3:2, v:v) was added to extract full fat containing triglycerides. With 0.5 ml extraction solvent, extract was obtained two times for 30 min each, and 1 ml of the extract was concentrated with nitrogen gas. After removing the extraction solvent, the total fat was dissolved in organic solvent (chloroform:methanol=2:1) and spotted with thin-layer chromatography (TLC:silica gel 60F254, thickness: 0.5 mm, Merck) on the developing solvent (hexane:diethyl ether:acetic acid=80:20:1, v: v: v). Triglycerides (Rf value: 0.4) were isolated on TLC, and after exposing the TLC plate to the film with photosensitivity to radiation energy (imaging plate' Fujifilm, BMS-MS 2040) for 3 hr, the amount of [^14C] radiation of triglyceride was measured by imaging analysis (FLA 7000). The remaining cells after the extraction were dissolved in 0.3 ml 0.1 N sodium hydroxide for use in the measurement of protein concentration of the cells used for the reaction.
The experimental errors among the respective experimental groups were compensated with the experimental value which was obtained by dividing the measured radiation of triglyceride by protein concentration, and the production rate of triglyceride according to the respective compounds of Examples 1-51 are tabulated below.

[1] = 10 μM, enzyme from sf9 cells overexpressing hDGAT2, read-out: hDGAT-2 (sf9) inhibition rate(%)at 10 μM
[2] = concentration of 10 μM, read-out: hDGAT2 inhibition

CC(C)=CCn1cc(/C=C/C(=O)N(NC(=O)c2cccc(F)c2)C(C)C)c2ccccc21 [Example 34]
inhibition at 10 µM (human DGAT2; [1]): 18.5%
IC50 (human DGAT1): 7.2 µM
activity at 10 µM (HepG2 cells): 58%

Cc1ccc2c(c1)c(/C=C/C(=O)N(NC(=O)c1cccc(F)c1)C(C)C)cn2C(=O)OC(C)(C)C [Example 35, (E)-tert-butyl 3-(3-(2-(3-fluorobenzoyl)-1-isopropylhydrazinyl)-3-oxoprop-1-enyl)-5-methyl-1H-indole-1-carboxylate]
inhibition at 10 µM (human DGAT2; [1]): 2%
inhibition at 10 µM (human DGAT2; [2]): < 11%
IC50 (human DGAT1): 3.2 µM
activity at 10 µM (HepG2 cells): 57.6%

CC(C)c1ccc2c(/C=C/C(=O)N(NC(=O)c3cccc(F)c3)C(C)C)cn(C(=O)OC(C)(C)C)c2c1 [Example 36, (E)-tert-butyl 3-(3-(2-(3-fluorobenzoyl)-1-isopropylhydrazinyl)-3-oxoprop-1-enyl)-6-isopropyl-1H-indole-1-carboxylate]
inhibition at 10 µM (human DGAT2; [1]): 3.6%
IC50 (human DGAT1): > 100 µM
activity at 10 µM (HepG2 cells): 75%
inhibition at 10 µM (HepG2 cells): 20 to 30%

Cc1ccc2c(/C=C/C(=O)N(NC(=O)c3cccc(F)c3)C(C)C)cn(C(=O)OC(C)(C)C)c2c1 [Example 37, (E)-tert-butyl 3-(3-(2-(3-fluorobenzoyl)-1-isopropylhydrazinyl)-3-oxoprop-1-enyl)-6-methyl-1H-indole-1-carboxylate]
inhibition at 10 µM (human DGAT2; [1]): 2.9%
IC50 (human DGAT1): > 100 µM
activity at 10 µM (HepG2 cells): 79.2%
inhibition at 10 µM (HepG2 cells): 20 to 30%

CC(C)N(NC(=O)c1cccc(F)c1)C(=O)/C=C/c1cn(C(=O)OC(C)(C)C)c2cc(F)ccc12 [Example 38, (E)-tert-butyl 6-fluoro-3-(3-(2-(3-fluorobenzoyl)-1-isopropylhydrazinyl)-3-oxoprop-1-enyl)-1H-indole-1-carboxylate]
inhibition at 10 µM (human DGAT2; [1]): < 0%
IC50 (human DGAT1): > 100 µM
activity at 10 µM (HepG2 cells): 85.7%

CC(C)CCn1cc(/C=C/C(=O)N(NC(=O)c2cccc(F)c2)C(C)C)c2ccccc21 [Example 39, (E)-3-fluoro-N′-(3-(1-isopentyl-1H-indol-3-yl)acryloyl)-N′-isopropylbenzohydrazide]
inhibition at 10 µM (human DGAT2; [1]): 42.3%
IC50 (human DGAT1): 1.8 µM
activity at 10 µM (HepG2 cells): 50.8%

CC(C)N(NC(=O)c1cccc(F)c1)C(=O)/C=C/c1cn(C)c2ccccc12 [Example 40, (E)-3-fluoro-N′-isopropyl-N′-(3-(1-methyl-1H-indol-3-yl)acryloyl)benzohydrazide]
inhibition at 10 µM (human DGAT2; [1]): 2.2%
IC50 (human DGAT1): > 100 µM
activity at 10 µM (HepG2 cells): 90%

CCn1cc(/C=C/C(=O)N(NC(=O)c2cccc(F)c2)C(C)C)c2ccccc21 [Example 41, (E)-N′-(3-(1-ethyl-1H-indol-3-yl)acryloyl)-3-fluoro-N′-isopropylbenzohydrazide]
inhibition at 10 µM (human DGAT2; [1]): 20.3%
IC50 (human DGAT1): 8.1 µM
activity at 10 µM (HepG2 cells): 79.4%
inhibition at 10 µM (HepG2 cells): 20 to 30%

CCCn1cc(/C=C/C(=O)N(NC(=O)c2cccc(F)c2)C(C)C)c2ccccc21 [Example 42, (E)-3-fluoro-N′-isopropyl-N′-(3-(1-propyl-1H-indol-3-yl)acryloyl)benzohydrazide]
inhibition at 10 µM (human DGAT2; [1]): 32.4%
IC50 (human DGAT1): 3.6 µM
activity at 10 µM (HepG2 cells): 79.9%
inhibition at 10 µM (HepG2 cells): 20 to 30%

CC(C)N(NC(=O)c1ccncc1)C(=O)/C=C/c1cn(C(=O)OC(C)(C)C)c2ccccc12 [Example 43, (E)-tert-butyl 3-(3-(2-isonicotinoyl-1-isopropylhydrazinyl)-3-oxoprop-1-enyl)-1H-indole-1-carboxylate]
inhibition at 10 µM (human DGAT2; [1]): 0.6%
inhibition at 10 µM (human DGAT2; [2]): < 11%
IC50 (human DGAT1): 4 µM
activity at 10 µM (HepG2 cells): 81.3%

CC(C)N(NC(=O)c1cccc(Cl)c1)C(=O)/C=C/c1cn(C(=O)OC(C)(C)C)c2ccccc12 [Example 45, (E)-tert-butyl 3-(3-(2-(3-chlorobenzoyl)-1-isopropylhydrazinyl)-3-oxoprop-1-enyl)-1H-indole-1-carboxylate]
inhibition at 10 µM (human DGAT2; [1]): 28.7%
IC50 (human DGAT1): 2.2 µM
activity at 10 µM (HepG2 cells): 97.9%

CC(C)=CCn1cc(/C=C/C(=O)N(NC(=O)c2cccc(C)c2)C(C)C)c2ccccc21 [Example 50, (E)-N′-isopropyl-3-methyl-N′-(3-(1-(3-methylbut-2-enyl)-1H-indol-3-yl)acryloyl)benzohydrazide]
inhibition at 10 µM (human DGAT2; [1]): 39%
IC50 (human DGAT1): 4.6 µM

CC(C)=CCn1cc(/C=C/C(=O)N(NC(=O)c2ccc(C)cc2)C(C)C)c2ccccc21 [Example 51, (E)-N′-isopropyl-4-methyl-N′-(3-(1-(3-methylbut-2-enyl)-1H-indol-3-yl)acryloyl)benzohydrazide]
inhibition at 10 µM (human DGAT2; [1]): 37.1%
IC50 (human DGAT1): 9.9 µM
